Format in all cases: cell-based
Experiment [1] concerns methicillin-resistant Staphylococcus aureus (MRSA) from humans. The experiment is described as follows: Antibacterial activity (IC), agar as in Example 8 (Example 19, Table 52). The settings on record: 18 h. The method, then: (§1) The antibacterial action was evaluated by the inhibitory concentration (hereinafter abbreviated as IC) at which propagation of the bacteria cultured at 37°C for 18 hours was inhibited. Inhibition was determined by the turbidity of the medium. The expressions "IC≤100", "≤10", and "≤1" indicate that MIC-equivalent values obtained at the succesive […] dilution of the sample are 100-10 µg/ml, 10-1 µg/ml, and not more than 1 µg/ml, respectively. […] (In the subsequent Examples, the same rule applies correspondingly.) Table 39
(§2) A suitable amount of a sample was dissolved in dimethylsulfoxide (DMSO), after which the resulting solution was diluted with the same amount of sterilized distilled water to prepare a bulk sample of 1,000 µg/ml. Separately, a bacterial liquid for the test (methicillin-resistant Staphylococcus aureus (MRSA) isolated from humans) which had been cultured in Mueller-Hinton broth (product of DIFCO) was prepared and inoculated to a Mueller-Hinton agar (product of DIFCO) containing the sample so that the final inoculation amount of 10^6 CFU/ml was achieved. The final concentrations of the samples were 100, 10, and 1 µg/ml.
(§3) After culturing at 37°C for 18 hours, the antibacterial activity was evaluated in terms of IC in a manner similar to that described in Example 4.
In a manner similar to that described in Example 8, antibacterial activity of a variety of ketonitrile derivatives shown in Table 52 was measured. The bacterium used for the test was methicillin-resistant Staphylococcus aureus (MRSA) from humans.

The subject of another experiment is Enterococcus from fish. As to the kind of experiment: Antibacterial activity (IC), agar as in Example 8, media with 1.5% NaCl, 25°C (Example 20, Tables 53-55). The settings on record: for MIC: Enterococcus Seriolicida SE94-002. The method, then:
as §1, §2, §3
(§4) In a manner similar to that described in Example 8, antibacterial activity of a variety of ketonitrile derivatives shown in Tables 53-55 was measured. The bacteria used for the test were Enterococcus and Pasteurella from fish. The culture conditions were such that the media contained 1.5% NaCl, and the culture temperature was 25°C.

The subject of the next experiment is Pasteurella from fish. The experiment is described as above. To be noted: for MIC: Pasteurella piscicida KP94-02. The method, then:
as §1, §2, §3, §4

Experiment [2] deals with Streptococcus aureus (TI-1). The experiment is described as follows: Antibacterial activity (IC), agar as in Example 8 (Example 16, Table 49). To be noted: 18 h. As to the method: as §1, §2, §3
In a manner similar to that described in Example 8, antibacterial activity of the invention compound was determined. The bacterium used for the test was […] aureus (TI-1).

Experiment [3] deals with Staphylococcus aureus (209-P). The experiment is described as follows: Antibacterial activity (IC), agar as in Example 8 (Example 15, Table 48). The settings on record: 18 h. As to the method: as §1, §2, §3
The bacterium used for the test was Staphylococcus aureus (209-P).

Experiment [4] deals with Pasteurella multocida (Kobe-6). The experiment is described as follows: Antibacterial activity (IC), agar as in Example 8 (Example 17, Table 50). To be noted: 18 h, origin pig. As to the method: as §1, §2, §3
In a manner similar to that described in Example 8, antibacterial activity of the invention compound was determined. The bacterium used for the test was Pasteurella Kobe-6 (origin: pig, Pasteurella multocida).

Where [5] appears, read: Enterococcus Seriolicida KG86050.
Setting [6] is: Enterococcus Seriolicida MS89060.
Setting [7] is: Enterococcus Seriolicida MS89064.
The mark [8] stands for this setting: Enterococcus Seriolicida MS89066.
[9] abbreviates: Enterococcus Seriolicida MS89068.
[10] abbreviates: Enterococcus Seriolicida SE94-001.
Setting [11] is: Enterococcus Seriolicida SE94-003.
[12] abbreviates: Enterococcus Seriolicida SE94-004.
[13] abbreviates: Enterococcus Seriolicida SE94-005.

The structures appear in SMILES notation. In brackets after ≈: the same amount, converted by molar mass.

On to `CC(Oc1cccc(Oc2ccc(C(F)(F)F)cc2Cl)c1)C(=O)C(C#N)c1ccccc1` (stereo not drawn) [Compound No. 105, 4-[3-(2-chloro-4-trifluoromethylphenoxy)phenoxy]-3-oxo-2-phenylpentanonitrile], for which the MIC in experiment [1] (MRSA strain 891179), in experiment [1] (MRSA strain 891185), in experiment [1] (MRSA strain 891187), in experiment [1] (MRSA strain 891192), in experiment [1] (MRSA strain 900048) and in experiment [1] (MRSA strain 900056) was 1 to 10 µg/mL (≈ 2.17 to 21.7 µM) each time. For the same compound, the MIC – broadly, the lowest concentration that inhibits growth of the organism – against Enterococcus from fish lay within 1 to 10 µg/mL (≈ 2.17 to 21.7 µM); against Pasteurella from fish, 10 to 100 µg/mL (≈ 21.7 to 217 µM); in experiment [2] it was 1 to 10 µg/mL (≈ 2.17 to 21.7 µM); in experiment [3], 1 to 10 µg/mL (≈ 2.17 to 21.7 µM); in experiment [4], 10 to 100 µg/mL (≈ 21.7 to 217 µM). Further, the IC in the experiment on Enterococcus from fish (Enterococcus Seriolicida HI), with Enterococcus from fish (setting [5]), in the experiment with Enterococcus from fish (setting [6]), with Enterococcus from fish (setting [7]), in the experiment with Enterococcus from fish (setting [8]) and in the experiment with Enterococcus from fish (setting [9]) was ≤10 (10-1 µg/ml) throughout. The IC with Enterococcus from fish (setting [10]) is reported as ≤10 (10-1 µg/ml); in the experiment with Enterococcus from fish (setting [11]), ≤10 (10-1 µg/ml); with Enterococcus from fish (setting [12]) it was ≤10 (10-1 µg/ml); in the experiment on Enterococcus from fish (setting [13]) it was ≤10 (10-1 µg/ml); in the experiment with Pasteurella from fish (Pasteurella piscicida KP94-04), ≤100 (MIC-equivalent values obtained at the succesive 2-fold dilution of the sample are 100-10 µg/ml); in the experiment on Pasteurella from fish (Pasteurella piscicida KP94-05) it was ≤100 (MIC-equivalent values obtained at the succesive 2-fold dilution of the sample are 100-10 µg/ml). In the experiment on Pasteurella from fish (Pasteurella piscicida KP94-06), the IC is on record as ≤100 (MIC-equivalent values obtained at the succesive 2-fold dilution of the sample are 100-10 µg/ml).

Turning to `CC(Oc1cccc(Oc2ccc(Br)cc2F)c1)C(=O)C(C#N)c1ccc(Cl)c(Cl)c1` (stereo not drawn) [Compound No. 109, 4-[3-(4-bromo-2-fluorophenoxy)phenoxy]-2-(3,4-dichlorophenyl)-3-oxopentanonitrile], the MIC in experiment [1] (MRSA strain 891179), in experiment [1] (MRSA strain 891185), in experiment [1] (MRSA strain 891187), in experiment [1] (MRSA strain 891192), in experiment [1] (MRSA strain 900048) and in experiment [1] (MRSA strain 900056) was 1 to 10 µg/mL (≈ 1.91 to 19.1 µM) throughout. For the same compound, the minimal inhibitory concentration (MIC) in the experiment on Enterococcus from fish was 1 to 10 µg/mL (≈ 1.91 to 19.1 µM); in the experiment on Pasteurella from fish, 1 to 10 µg/mL (≈ 1.91 to 19.1 µM); in experiment [2], ≤ 1 µg/mL; in experiment [3], 1 to 10 µg/mL (≈ 1.91 to 19.1 µM); in experiment [4], 1 to 10 µg/mL (≈ 1.91 to 19.1 µM). Further, the IC in the experiment with Enterococcus from fish (Enterococcus Seriolicida HI), in the experiment on Enterococcus from fish (setting [5]), in the experiment on Enterococcus from fish (setting [6]), in the experiment on Enterococcus from fish (setting [7]), in the experiment with Enterococcus from fish (setting [8]) and in the experiment on Enterococcus from fish (setting [9]) was ≤10 (10-1 µg/ml) in each case. Besides, the IC in the experiment on Enterococcus from fish (setting [10]), with Enterococcus from fish (setting [11]), in the experiment with Enterococcus from fish (setting [12]) and in the experiment with Enterococcus from fish (setting [13]) was ≤10 (10-1 µg/ml) throughout.

Take `CC(Oc1cccc(Oc2ccc(Br)cc2F)c1)C(=O)C(C#N)c1cccc(Cl)c1` (stereo not drawn) [Compound No. 110, 4-[3-(4-bromo-2-fluorophenoxy)phenoxy]-2-(3-chlorophenyl)-3-oxopentanonitrile]: the MIC in experiment [1] (MRSA strain 891179), in experiment [1] (MRSA strain 891185), in experiment [1] (MRSA strain 891187), in experiment [1] (MRSA strain 891192), in experiment [1] (MRSA strain 900048) and in experiment [1] (MRSA strain 900056) was 1 to 10 µg/mL (≈ 2.05 to 20.5 µM) throughout. For the same compound, the MIC against Enterococcus from fish was 1 to 10 µg/mL (≈ 2.05 to 20.5 µM); in the experiment on Pasteurella from fish it was 10 to 100 µg/mL (≈ 20.5 to 205 µM); in experiment [2] it was 1 to 10 µg/mL (≈ 2.05 to 20.5 µM); in experiment [3], 1 to 10 µg/mL (≈ 2.05 to 20.5 µM); in experiment [4], 10 to 100 µg/mL (≈ 20.5 to 205 µM). The IC in the experiment with Enterococcus from fish (Enterococcus Seriolicida HI), in the experiment on Enterococcus from fish (setting [5]), in the experiment with Enterococcus from fish (setting [6]), in the experiment on Enterococcus from fish (setting [7]), in the experiment with Enterococcus from fish (setting [8]) and with Enterococcus from fish (setting [9]) was ≤10 (10-1 µg/ml) throughout. In addition, the IC is ≤10 (10-1 µg/ml) in the experiment with Enterococcus from fish (setting [10]); ≤10 (10-1 µg/ml) with Enterococcus from fish (setting [11]); ≤10 (10-1 µg/ml) in the experiment on Enterococcus from fish (setting [12]); ≤10 (10-1 µg/ml) with Enterococcus from fish (setting [13]); ≤100 (MIC-equivalent values obtained at the succesive 2-fold dilution of the sample are 100-10 µg/ml) in the experiment on Pasteurella from fish (Pasteurella piscicida KP94-04); ≤100 (MIC-equivalent values obtained at the succesive 2-fold dilution of the sample are 100-10 µg/ml) with Pasteurella from fish (Pasteurella piscicida KP94-05). For the same compound, the IC in the experiment on Pasteurella from fish (Pasteurella piscicida KP94-06) is ≤100 (MIC-equivalent values obtained at the succesive 2-fold dilution of the sample are 100-10 µg/ml).

As for `CC(Oc1cccc(Oc2ccc(Br)cc2F)c1)C(=O)C(C#N)c1cccc(Br)c1` (stereo not drawn) [Compound No. 111, 4-[3-(4-bromo-2-fluorophenoxy)phenoxy]-2-(3-bromophenyl)-3-oxopentanonitrile], the MIC in experiment [1] (MRSA strain 891179), in experiment [1] (MRSA strain 891185), in experiment [1] (MRSA strain 891187), in experiment [1] (MRSA strain 891192), in experiment [1] (MRSA strain 900048) and in experiment [1] (MRSA strain 900056) was 1 to 10 µg/mL (≈ 1.88 to 18.8 µM) throughout. Also, the MIC with Enterococcus from fish fell in the range of 1 to 10 µg/mL (≈ 1.88 to 18.8 µM); against Pasteurella from fish it was 10 to 100 µg/mL (≈ 18.8 to 188 µM); in experiment [2] it was 1 to 10 µg/mL (≈ 1.88 to 18.8 µM); in experiment [3], 1 to 10 µg/mL (≈ 1.88 to 18.8 µM); in experiment [4], 10 to 100 µg/mL (≈ 18.8 to 188 µM). In addition, the IC with Enterococcus from fish (Enterococcus Seriolicida HI), with Enterococcus from fish (setting [5]), in the experiment on Enterococcus from fish (setting [6]), with Enterococcus from fish (setting [7]), in the experiment with Enterococcus from fish (setting [8]) and in the experiment on Enterococcus from fish (setting [9]) was ≤10 (10-1 µg/ml) throughout. Also, the IC in the experiment with Enterococcus from fish (setting [10]) is given as ≤10 (10-1 µg/ml); in the experiment on Enterococcus from fish (setting [11]) it was ≤10 (10-1 µg/ml); in the experiment on Enterococcus from fish (setting [12]), ≤10 (10-1 µg/ml); with Enterococcus from fish (setting [13]), ≤10 (10-1 µg/ml); in the experiment with Pasteurella from fish (Pasteurella piscicida KP94-04), ≤100 (MIC-equivalent values obtained at the succesive 2-fold dilution of the sample are 100-10 µg/ml); with Pasteurella from fish (Pasteurella piscicida KP94-05) it was ≤100 (MIC-equivalent values obtained at the succesive 2-fold dilution of the sample are 100-10 µg/ml). Further, in the experiment with Pasteurella from fish (Pasteurella piscicida KP94-06), the IC is given as ≤100 (MIC-equivalent values obtained at the succesive 2-fold dilution of the sample are 100-10 µg/ml).

For the compound `CC(Oc1cc(Oc2ccc(C(F)(F)F)cc2Cl)ccc1[N+](=O)[O-])C(=O)C(C#N)C(=O)N1CCCC1` (stereo not drawn) [compound 134], the IC with Enterococcus from fish (Enterococcus Seriolicida HI), in the experiment on Enterococcus from fish (setting [5]), with Enterococcus from fish (setting [6]), in the experiment with Enterococcus from fish (setting [7]), in the experiment with Enterococcus from fish (setting [8]) and in the experiment on Enterococcus from fish (setting [9]) was ≤100 (MIC-equivalent values obtained at the succesive 2-fold dilution of the sample are 100-10 µg/ml) in each case. In addition, the IC in the experiment on Enterococcus from fish (setting [10]), with Enterococcus from fish (setting [11]), in the experiment on Enterococcus from fish (setting [12]) and with Enterococcus from fish (setting [13]) was ≤100 (MIC-equivalent values obtained at the succesive 2-fold dilution of the sample are 100-10 µg/ml) throughout. Besides, the MIC (in the experiment on Enterococcus from fish; against Pasteurella from fish; in experiment [2]; in experiment [3]; in experiment [4]) was 10 to 100 µg/mL (≈ 19 to 190 µM) throughout.

Source of the values: patent EP0768085A1, “ANTIBACTERIAL AGENT” (DAIICHI PHARMACEUTICAL CO., LTD., priority 1994, dated 1996).
